Assay results taken from patent US10047049B2, “Process for preparing pridopidine” (priority 2015, dated 2018).
Values after ≈ are worked out from the molar mass of the structure shown.

Columns and labels:
[1] = format: physicochemical
Description: The purity profile of the isolated Compound 9 was better when performing the crystallization from water (Batch 2602 and Batch 2603; both had purities over 99.5%) compared to both crystallization from water/MTBE mixture (purity of 98.5%) and pure MTBE (Batch 2601; purity was 98.5%). The major improvement is removal of early eluting/polar impurities. The yield of the present method may be slightly lower because there will be a small loss of material in the mother liquor. Estimated solubility of Compound 9 in the mother liquor at 5-20° C. is 0.8-0.9% (Batch 2602 and Batch 2603). In the current method this would correspond to 4-5% of the material being lost. This is considered an acceptable loss because of the improved purity of Compound 9.

[2] = cited from earlier work

With `CCCN1CCC(O)(c2cccc(SC)c2)CC1` [Compound 9, 4-(3-(methylthio)phenyl)-1-propylpiperidin-4-ol] the “Estimated solubility in the mother liquor” value [1] was 0.8-0.9%.
In the case of `CSc1ccccc1` [TA, thioanisole], the “solubility (water)” value [2] is listed as 500 µg/mL (≈ 4.03 mM).
For `CCCCCCBr` [hexyl bromide], the “solubility in water” value [2] is given as “insoluble in water”.
